Reference: US20250208149A1, “WEE1 COMPOUND FOR TREATING UTERINE SEROUS CARCINOMA” (Recurium IP Holdings, LLC, priority 2022, published 2025)

What was measured:
Assay type in all cases: cell-based
H1975 cells = assay: ZN-c3 dose response, percent cell density (cell titer glow), PPP2R1A siRNA vs scrambled control; conditions: Homo sapiens, NCI-H1975, 72 h
Protocol: (§1) FIG. 3 depicts the percent cell density of H1975 (a second non-small cell lung cancer cell line) cells after treatment with a 10-point dose response of ZN-c3 for 72 hours, comparing cells transfected with siRNA to PPP2R1A against those transfected with a scrambled control siRNA. Percent cell density is calculated using cell titer glow analysis. PPP2R1A siRNA transfected cells have approximately 3.7-fold increase in sensitivity to ZN-c3 (TABLE 2).
(§2) The effect of PPP2R1A knockdown on influencing cancer cell susceptibility to ZN-c3 was evaluated. Various cancer cell lines were transfected with PPP2R1A siRNA or control scrambled siRNA and the cells were treated with a 10 point dose response of ZN-c3 for 72 hours. Percent cell density was calculated using cell titer glow analysis. The PPP2R1A siRNA targeted the following bases Chr.19: 52189802-52226425. SiRNA transfection was started 48 hours prior to treatment with ZN-c3. […]
(§3) A second non-small cell lung cancer cell line H1975 was treated with PPP2R1A siRNA or control siRNA and transfected cells were assessed for sensitivity to ZN-c3 by measurement of reduction in percent cell density (FIG. 3). PPP2R1A siRNA mediated knockdown of PPP2R1A was evaluated by comparison of PPP2R1A expression in conditions treated with siCTRL and siPPPR12A (FIG. 4).

Hs578T cells = assay: as above; conditions: Homo sapiens, Hs-578T, 72 h
Protocol: as §1, with “FIG. 5” for “FIG. 3”, “of Hs578T” for “of H1975”, “(a breast” for “(a second non-small cell lung”, “approximately 2.4-fold” for “approximately 3.7-fold”, “(TABLE 3).” for “(TABLE 2).”
as §2
as §3, with “breast” for “second non-small cell lung”, “Hs578T” for “H1975”, “5).” for “3).”, “6).” for “4).”

HEC-59 cells = assay: as above; conditions: 72 h, HEC-59 cells (PPP2R1A wild-type)
Protocol: (§4) FIG. 11 depicts the percent cell density of HEC1B and HEC-59 (endometrial cancer cell lines) cells after treatment with a 10-point dose response of ZN-c3 for 72 hours, comparing cells transfected with siRNA to PPP2R1A against those transfected with a scrambled control siRNA. […] HEC-59 is PPP2R1A wild-type. Percent cell density is calculated using cell titer glow analysis. HEC1B PPP2R1A siRNA transfected cells have approximately 1.4-fold increase in sensitivity to ZN-c3 while HEC-59 PPP2R1A siRNA transfected cells have approximately 2.5 fold increase in sensitivity to ZN-c3 (TABLE 6).
(§5) The effect of PPP2R1A knockdown on influencing cancer cell susceptibility to ZN-c3 was evaluated. Various cancer cell lines were transfected with PPP2R1A siRNA or control scrambled siRNA and the cells were treated with a 10 point dose response of ZN-c3 for 72 hours. Percent cell density was calculated using cell titer glow analysis. The PPP2R1A siRNA targeted the following bases Chr.19: 52189802-52226425. SiRNA transfection was started 48 hours prior to treatment with ZN-c3. The ZN-c3 dose response evaluation included ZN-c3 dosages at […].
(§6) Endometrial cancer cell lines HEC1B and HEC-59 were treated with PPP2R1A siRNA or control siRNA and transfected cells were assessed for sensitivity to ZN-c3 by measurement of reduction in percent cell density (FIG. 11). PPP2R1A siRNA mediated knockdown of PPP2R1A was evaluated by comparison of PPP2R1A protein expression via western blot in conditions treated with siCTRL and siPPPR12A with vinculin used as a control (FIG. 12). Knockdown of PPP2R1A by siRNA was limited in HEC1B cells, due to the missense mutations W257L and L429F within PPP2R1A in this cell line.

HEC1B cells = assay: as above; conditions: Homo sapiens, HEC-1B, 72 h, HEC1B cells (PPP2R1A W257L; L429F)
Protocol: as §4, §5, §6

H1975 lung cancer cells = assay: ZN-c3 dose response, percent cell density (cell titer glow), CRISPR knockout of PPP2R1A vs non-targeting guide RNA; conditions: Homo sapiens, NCI-H1975, 72 h
Protocol: FIG. 15 depicts the percent cell density of H1975 lung cancer cells after treatment with a 10-point dose response of ZN-c3 for 72 hours, comparing cells transduced with a non-targeting guide RNA to against those with genetic knockout of PPP2R1A after transduction with a CRISPR guide RNA targeting PPP2R1A. Percent cell density is calculated using cell titer glow analysis. PPP2R1A CRISPR knockout cells have approximately 1.9 fold increase in sensitivity to ZN-c3 (TABLE 8).
Having observed that siRNA mediated knockdown of PPP2R1A sensitized cancer cell lines to treatment with ZN-c3, it was also of interest to evaluate if CRISPR mediated PPP2R1A knockout produced a similar effect. Various cancer cell lines were transfected with a CRISPR guide RNA targeting PPP2R1A or nontargeting guide RNA and the cells were treated with a 10-point dose response of ZN-c3 for 72 hours. […] Percent cell density was calculated using cell titer glow analysis.
The lung cancer cell line H1975 was treated with a CRISPR guide RNA targeting PPP2R1A or nontargeting guide RNA and transfected cells were assessed for sensitivity to ZN-c3 by measurement of reduction in percent cell density (FIG. 15). CRISPR mediated knockout of PPP2R1A was evaluated by comparison of PPP2R1A expression in conditions treated with nontargeting guide RNA and PPPR12A targeting CRISPR guide RNA (FIG. 16).

- EC50 (H1975 cells; siCTRL): 560 nM
- EC50 (H1975 cells; siPPP2R1A): 150 nM
- EC50 (H1975 lung cancer cells; sgNT (non-targeting guide RNA)): 516 nM
- EC50 (H1975 lung cancer cells; sgPPP2R1A (CRISPR knockout)): 275 nM
Structure (SMILES): C=CCn1c(=O)c2cnc(Nc3ccc(N4CCN(C)CC4)cc3)nc2n1-c1ccc2c(n1)[C@@](O)(CC)CC2 [ZN-c3, (R)-2-allyl-1-(7-ethyl-7-hydroxy-6,7-dihydro-5H-cyclopenta[b]pyridin-2-yl)-6-((4-(4-methylpiperazin-1-yl)phenyl)amino)-1,2-dihydro-3H-pyrazolo[3,4-d]pyrimidin-3-one]
- EC50 (Hs578T cells; siCTRL): 170 nM
- EC50 (Hs578T cells; siPPP2R1A): 71.3 nM
- EC50 (HEC-59 cells; siCTRL): 1040 nM
- EC50 (HEC-59 cells; siPPP2R1A): 436 nM
- EC50 (HEC1B cells; siCTRL): 707 nM
- EC50 (HEC1B cells; siPPP2R1A): 490 nM
